How the values were obtained:
in vivo = conditions: rat; for AUC / Cmax / level at 0.25 h / level at 0.5 h / level at 1 h / level at 2 h: female; for level at 0.25 h / level at 0.5 h / level at 1 h / level at 2 h: 2.5 mg
From the text: The effect of C-terminal amidation on the absorption of luteinizing hormone-releasing hormone (LHRH-NH2) from the duodenum of anesthetized rats was examined. In this study the absorption characteristics of LHRH-NH2, a naturally occurring C-terminal amidated decapeptide were compared with that of LHRH-COOH, a decapeptide with the same amino acid sequence as that of LHRH-NH2 except that the C-terminal amino acid of LHRH-COOH is gly-COOH instead of gly-NH2. Twelve female rats were anesthetized and implanted with a cannula in the carotid artery for taking blood samples at various times. Six rats were injected in the duodenum through a 27 gauge needle with 0.5 mL of LHRH-NH2 (5 mg/mL) in 0.5M citric acid and lauroylcarnitine (10 mg/mL) and six rats with injected in the duodenum with 0.5 mL LHRH-COOH) (5 mg/mL) in the same formulation. Samples of blood were taken prior to the administration of formulated LHRH-NH2 or LHRH-COOH and at 5, 15, 30, 60, and 120 minutes after peptide administration. The resulting plasma samples were analyzed for LHRH-NH2 or LHRH-COOH by high performance liquid chromatography equipped with a fluorescence detector to measure the concentration of peptide in plasma.

[1] = Oral bioavailability of sCTgly vs sCT-NH2, enteric coated capsules, dog model; type: in vivo, Beagle dogs; conditions: for Cmax: male, Beagle, read-out: Mean Cmax ± SEM; for Cmax / Mean AUC ± SERM: oral enteric coated capsule, dog plasma, adjusted to a 1 mg dose
Protocol: A study was carried out in a dog model to compare the pharmacokinetic parameters of orally delivered glycine-extended sCT (sCTgly) with those of amidated sCT (sCT-NH2).
Eight adult male Beagle dogs, weighing between 12 and 16 kg, were used in this study. Dogs were fasted overnight prior to administration of the test peptide, but were allowed free access to water. A wash-out period of at least 1 week occurred between experiments for each dog. Each dog received an orally administered, enteric coated gelatin capsule that contained 1.11 mg of sCTgly in week 1 and 1.11 mg of sCT-NH2 in week 2. Prior to capsule administration, a 20-gauge intravenous (IV) catheter was inserted into a brachial vein for the collection of blood samples. Two pre-dose samples of 3 ml each were collected from the brachial vein.
After administration of the capsule, 3 ml blood samples were collected from the brachial vein at 15 minute intervals up to 240 minutes post-administration. Blood samples were collected into new heparinized Monovette sampling syringes. Samples were placed on ice before being centrifuged for 10 minutes at approximately 2750 rpm at 2-8° C. The plasma supernatant was transferred to color-coded microcentrifuge tubes labeled with the time point and stored frozen at −20° C. prior to analysis to determine the concentration of sCTgly or sCT-NH2.
The concentration of sCTgly in plasma was determined by radioimmunoassay with an RIA kit from Peninsula Laboratories. sCT-NH2 concentration in plasma was determined by a sandwich ELISA immunoassay using a kit from Diagnostic Systems Laboratories Inc. From the pharmacokinetic profile of sCTgly or sCT-NH2 in plasma, the parameters of Cmax (peak of plasma concentration in pg/ml) and AUC (Area under the Curve) were determined. All measured values were normalized for a 1 mg peptide dose for either of the two peptides.

[2] = cited from earlier work
[3] = Blood levels of salmon calcitonin after direct injection into duodenum, ileum or colon of rats; type: in vivo; conditions: active components injected directly into duodenum
From the text: The acid is believed to lower the local intestinal pH (where the active agent has been released) to levels below the optimal range for many intestinal proteases and other intestinal enzymes. This decrease in pH reduces the proteolytic activity of the intestinal proteases, thus affording protection to the peptide and the membrane translocator from potential degradation. The activity of these proteases is diminished by the temporarily acidic environment provided by the invention. It is preferred that sufficient acid be provided that local intestinal pH is lowered temporarily to 5.5 or below, preferably 4.7 or below and more preferably 3.5 or below. The sodium bicarbonate test described below (in the section captioned “the pH-Lowering Agent”) is indicative of the required acid amount.

CC(C)C[C@H](NC(=O)CNC(=O)[C@H](Cc1ccc(O)cc1)NC(=O)[C@H](CO)NC(=O)[C@H](Cc1c[nH]c2ccccc12)NC(=O)[C@H](Cc1cnc[nH]1)NC(=O)[C@@H]1CCC(=O)N1)C(=O)N[C@@H](CCCN=C(N)N)C(=O)N1CCC[C@H]1C(=O)NCC(=O)O [LHRH-COOH]
AUC (in vivo): 296 ng·h/mL | Cmax (in vivo): 654 ± 103 ng/mL | level at 0.25 h (in vivo): 654 ± 103 ng/mL | level at 0.5 h (in vivo): 391 ± 81 ng/mL | level at 1 h (in vivo): 163 ± 68 ng/mL | level at 2 h (in vivo): 56 ± 19 ng/mL | time at which maximum concentration (Cmax) was detected in plasma (in vivo): five

CC(C)C[C@H](NC(=O)CNC(=O)[C@H](Cc1ccc(O)cc1)NC(=O)[C@H](CO)NC(=O)[C@H](Cc1c[nH]c2ccccc12)NC(=O)[C@H](Cc1cnc[nH]1)NC(=O)[C@@H]1CCC(=O)N1)C(=O)N[C@@H](CCCNC(=N)N)C(=O)N1CCC[C@H]1C(=O)NCC(N)=O [LHRH-NH2]
AUC (in vivo): 1820 ng·h/mL | Cmax (in vivo): 3280 ± 893 ng/mL | level at 0.25 h (in vivo): 3280 ± 893 ng/mL | level at 0.5 h (in vivo): 2900 ± 612 ng/mL | level at 1 h (in vivo): 1280 ± 282 ng/mL | level at 2 h (in vivo): 382 ± 103 ng/mL | AUC relative to free acid form of LHRH (in vivo): 6 times | amount detected in plasma relative to LHRH-COOH (in vivo): 5 times | time at which maximum concentration (Cmax) was detected in plasma (in vivo): five

CC(C)C[C@H](NC(=O)[C@H](CCCCN)NC(=O)CNC(=O)[C@H](CC(C)C)NC(=O)[C@@H](NC(=O)[C@@H]1CSSC[C@H](N)C(=O)N[C@@H](CO)C(=O)N[C@@H](CC(N)=O)C(=O)N[C@@H](CC(C)C)C(=O)N[C@@H](CO)C(=O)N[C@@H]([C@@H](C)O)C(=O)N1)C(C)C)C(=O)N[C@@H](CO)C(=O)N[C@@H](CCC(N)=O)C(=O)N[C@@H](CCC(=O)O)C(=O)N[C@@H](CC(C)C)C(=O)N[C@@H](Cc1c[nH]cn1)C(=O)N[C@@H](CCCCN)C(=O)N[C@@H](CC(C)C)C(=O)N[C@@H](CCC(N)=O)C(=O)N[C@H](C(=O)N[C@@H](Cc1ccc(O)cc1)C(=O)N1CCC[C@H]1C(=O)N[C@@H](CCCNC(=N)N)C(=O)N[C@H](C(=O)N[C@@H](CC(N)=O)C(=O)N[C@H](C(=O)NCC(=O)N[C@@H](CO)C(=O)NCC(=O)N[C@H](C(=O)N1CCC[C@H]1C(N)=O)[C@@H](C)O)[C@@H](C)O)[C@@H](C)O)[C@@H](C)O [sCT-NH2]
Cmax [1]: 3.2 ng/mL | Mean AUC ± SERM [1]: 148,000 ± 18,200 pg · min/ml | mean AUC relative to sCTgly ([1]; oral, dog): 5.9 times | mean Cmax relative to sCTgly ([1]; oral, dog): 6.6 times | blood levels after injection at conventional dosages ([2]; man): no detectable blood levels more than two hours after injection | duration of beneficial effect on osteoclasts ([2]; man): more than 24 hours | peak levels at which proven effective against osteoporosis ([2]; nasally administered, 200 International units): ≥ 10 picograms per milliliter | peak levels at which some patients report gastrointestinal distress ([2]; patients): ≥ 200 picograms per milliliter | half-life ([2]; subcutaneous administration in man): 20 to 40 min | peak serum concentration ([2]; subcutaneous administration, 100 International units): about 250 picograms per milliliter | Tmax for blood levels [3]: 5 to 15 min

CC(C)C[C@H](NC(=O)[C@H](CCCCN)NC(=O)CNC(=O)[C@H](CC(C)C)NC(=O)[C@@H](NC(=O)[C@@H]1CSSC[C@H](N)C(=O)N[C@@H](CO)C(=O)N[C@@H](CC(N)=O)C(=O)N[C@@H](CC(C)C)C(=O)N[C@@H](CO)C(=O)N[C@@H]([C@@H](C)O)C(=O)N1)C(C)C)C(=O)N[C@@H](CO)C(=O)N[C@@H](CCC(N)=O)C(=O)N[C@@H](CCC(=O)O)C(=O)N[C@@H](CC(C)C)C(=O)N[C@@H](Cc1c[nH]cn1)C(=O)N[C@@H](CCCCN)C(=O)N[C@@H](CC(C)C)C(=O)N[C@@H](CCC(N)=O)C(=O)N[C@H](C(=O)N[C@@H](Cc1ccc(O)cc1)C(=O)N1CCC[C@H]1C(=O)N[C@@H](CCCNC(=N)N)C(=O)N[C@H](C(=O)N[C@@H](CC(N)=O)C(=O)N[C@H](C(=O)NCC(=O)N[C@@H](CO)C(=O)NCC(=O)N[C@H](C(=O)N1CCC[C@H]1C(=O)NCC(=O)O)[C@@H](C)O)[C@@H](C)O)[C@@H](C)O)[C@@H](C)O [sCTgly]
Cmax [1]: 0.485 ± 0.106 ng/mL | Mean AUC ± SERM [1]: 25,125 ± 5,525 pg · min/ml
